Source: US20230263786A1, “MODULATION OF DRUG-DRUG INTERACTIONS OF VADADUSTAT” (Akebia Therapeutics, Inc., priority 2020, published 2023)

Key:
Format in all cases: in vivo, human
[1] = Phase I interaction study Part 3 Arm 1: atorvastatin; settings: for AUC0-∞, Ratio of geometric mean value Combined/alone / Cmax, Ratio of geometric mean value Combined/alone: Atorvastatin 40 mg, Compound 1 600 mg; for AUCtau, Geometric LSM Ratio (A + V/A) / Cmax, Geometric LSM Ratio (A + V/A): atorvastatin 40 mg QD, vadadustat 600 mg QD; for AUC / Cmax: both sexes, human, plasma, oral, 40 mg; for AUC: heading: AUCtau, Geometric LSM; for Cmax: read-out: Cmax, Geometric LSM
Source text: Subjects were discharged from the clinical research unit on the morning of Day 9.

[2] = Phase I interaction study Part 3 Arm 2: simvastatin; settings: administered with Compound 1 compared to alone
Description: Subjects would remain fasted for approximately 4 hours after dosing. […] Subjects would remain fasted for at least 4 hours after dosing. Subjects were discharged from the clinical research unit on the morning of Day 6.

[3] = Phase I interaction study Part 2 Arm 1: sulfasalazine
Description: The study included 3 periods as follow: • Screening: performed within 28 days prior to dosing on Day 1. • Treatment period: […] In Part 2 (Arm 1): For each dose of sulfasalazine administered, blood samples for PK analysis were collected at the following timepoints: pre-dose, 0.5, 1, 2, 3, 4, 5, 6, 8, 12, 18, 24, 36, 48, 60, 72 and 96 hours postdose. […] Arm 1 (sulfasalazine): 26 subjects were treated with the study drug. On the morning of Day 1, subjects received a single oral dose of sulfasalazine 500 mg after at least a 10-hour overnight fast. Subjects would remain fasted for approximately 4 hours after dosing. Following a 5-day washout period (Days 1-5) subjects received vadadustat 600 mg once daily beginning on Day 6 for 7 days (Days 6-12). […] On Day 9, subjects received their morning dose of vadadustat 600 mg along with a single oral dose of sulfasalazine 500 mg after at least a 10-hour overnight fast. Subjects would remain fasted for at least 4 hours after dosing. Subjects were discharged from the clinical research unit on the morning of Day 13.

[4] = both sexes, human, in vivo, 500 mg

SMILES	AUC0-∞, Ratio of geometric mean value Combined/alone [1] [%]	Cmax, Ratio of geometric mean value Combined/alone [1] [%]	AUCtau, Geometric LSM Ratio (A + V/A) [1] [%]	Cmax, Geometric LSM Ratio (A + V/A) [1] [%]	AUC [1] [ng·h/mL]	Cmax [1] [ng/mL]	AUC(0-inf) [3, 4] [ng·h/mL]	Cmax [3, 4] [ng/mL]	also measured
CC(C)c1c(C(=O)Nc2ccc(O)cc2)c(-c2ccccc2)c(-c2ccc(F)cc2)n1CC[C@@H](O)C[C@@H](O)CC(=O)O [p-hydroxy atorvastatin, (3R,5R)-7-[2-(4-fluorophenyl)-4-[(4-hydroxyphenyl)carbamoyl]-3-phenyl-5-propan-2-ylpyrrol-1-yl]-3,5-dihydroxyheptanoic acid]	167.57	230.48	175.60	230.48	8.92	0.62	–	–	–
CC(C)c1c(C(=O)Nc2ccccc2O)c(-c2ccccc2)c(-c2ccc(F)cc2)n1CC[C@@H](O)C[C@@H](O)CC(=O)O [o-hydroxy atorvastatin, (3R,5R)-7-[2-(4-fluorophenyl)-4-[(2-hydroxyphenyl)carbamoyl]-3-phenyl-5-propan-2-ylpyrrol-1-yl]-3,5-dihydroxyheptanoic acid]	112.01	91.20	111.34	91.20	96	15	–	–	–
CCC(C)(C)C(=O)O[C@H]1C[C@@H](C)C=C2C=C[C@H](C)[C@H](CC[C@@H]3C[C@@H](O)CC(=O)O3)[C@H]21 [Simvastatin, simvastatin, reference compound]	–	–	–	–	–	–	–	–	increase of total exposure [2]: about 2 fold
Nc1ccc(O)c(C(=O)O)c1 [Mesalamine, mesalamine]	–	–	–	–	–	–	247	22	AUC0-last, Geometric LSM ([3]; Treatment S: sulfasalazine 500 mg alone): 220 ng·h/mL
O=C(O)c1cc(/N=N/c2ccc(S(=O)(=O)Nc3ccccn3)cc2)ccc1O [Sulfasalazine, sulfasalazine, reference compound]	–	–	–	–	–	–	82700	9700	AUC(0-t) [3, 4]: 82200 ng·h/mL; increase of systemic exposure ([3]; both, human, in vivo): up to 4.5 fold
